# Experimental data published in the supplement of paper PMC10733146.
# Experiments:
# Experiment in all cases: viability relative to DMSO control (fraction); higher = less drug effect (more viable cells)
# Details in all cases: 48 h
# [1] = system: primary ALL patient cells (S048)
# Outline: (§1)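 Cells were incubated for 48 h at 37 °C and 5% CO2 in RPMI-1640 with penicillin/streptomycin, L-glutamine and human serum, at 4 × 10^4 cells per well in 384-well plates with compounds pre-plated at five concentrations, one well each. These were primary mononuclear tumour cells, fresh or cryopreserved, Ficoll-isolated from blood or bone marrow or obtained from processed lymph node. Viability values are CellTiter-Glo luminescence relative to the median of 16 inner DMSO wells.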
# [2] = system: primary ALL patient cells (S088)
# Outline: as §1
# [3] = system: primary AML patient cells (S006)
# Outline: as §1
# [4] = system: primary AML patient cells (S007)
# Outline: as §1
# [5] = system: primary AML patient cells (S056)
# Outline: as §1
# [6] = system: primary AML patient cells (S060)
# Outline: as §1
# [7] = system: primary AML patient cells (S071)
# Outline: as §1
# [8] = system: primary AML patient cells (S072)
# Outline: as §1
# [9] = system: primary AML patient cells (S079)
# Outline: as §1
# [10] = system: primary AML patient cells (S089)
# Outline: as §1
# [11] = system: primary CLL patient cells (S031)
# Outline: as §1
# [12] = system: primary CLL patient cells (S043)
# Outline: as §1
# [13] = system: primary DLBCL patient cells (S049)
# Outline: as §1
# [14] = system: primary DLBCL patient cells (S076)
# Outline: as §1
# [15] = system: primary DLBCL patient cells (S082)
# Outline: as §1
# [16] = system: primary MCL patient cells (S063)
# Outline: as §1
# [17] = system: primary T-NHL patient cells (S058)
# Outline: as §1
structure (smiles),measurement,setting,value
CC#CC(=O)N1CCC[C@H]1c1nc(-c2ccc(C(=O)Nc3ccccn3)cc2)c2c(N)nccn12 [Acalabrutinib (ACP-196)],viability,[1]; 0.008 µM,1.05
same,viability,[1]; 0.04 µM,0.955
same,viability,[1]; 0.2 µM,0.975
same,viability,[1]; 1 µM,0.962
same,viability,[1]; 5 µM,1.03
same,viability,[2]; 0.008 µM,1.04
same,viability,[2]; 0.04 µM,1.04
same,viability,[2]; 0.2 µM,1.04
same,viability,[2]; 1 µM,1.02
same,viability,[2]; 5 µM,1.16
same,viability,[3]; 0.008 µM,1.08
same,viability,[3]; 0.04 µM,1.1
same,viability,[3]; 0.2 µM,1.09
same,viability,[3]; 1 µM,1.08
same,viability,[3]; 5 µM,1.04
same,viability,[4]; 0.008 µM,0.895
same,viability,[4]; 0.04 µM,0.945
same,viability,[4]; 0.2 µM,0.911
same,viability,[4]; 1 µM,1.07
same,viability,[4]; 5 µM,1.04
same,viability,[5]; 0.008 µM,1.04
same,viability,[5]; 0.04 µM,1.55
same,viability,[5]; 0.2 µM,1.02
same,viability,[5]; 1 µM,0.929
same,viability,[5]; 5 µM,0.766
same,viability,[6]; 0.008 µM,1.08
same,viability,[6]; 0.04 µM,1.06
same,viability,[6]; 0.2 µM,1.04
same,viability,[6]; 1 µM,1.05
same,viability,[6]; 5 µM,1.05
same,viability,[7]; 0.008 µM,1.06
same,viability,[7]; 0.04 µM,1.02
same,viability,[7]; 0.2 µM,1.01
same,viability,[7]; 1 µM,1.01
same,viability,[7]; 5 µM,0.994
same,viability,[8]; 0.008 µM,0.995
same,viability,[8]; 0.04 µM,0.971
same,viability,[8]; 0.2 µM,0.989
same,viability,[8]; 1 µM,0.941
same,viability,[8]; 5 µM,0.971
same,viability,[9]; 0.008 µM,0.948
same,viability,[9]; 0.04 µM,0.906
same,viability,[9]; 0.2 µM,0.859
same,viability,[9]; 1 µM,1.11
same,viability,[9]; 5 µM,0.965
same,viability,[10]; 0.008 µM,0.975
same,viability,[10]; 0.04 µM,0.996
same,viability,[10]; 0.2 µM,0.91
same,viability,[10]; 1 µM,0.679
same,viability,[10]; 5 µM,0.629
same,viability,[11]; 0.008 µM,0.877
same,viability,[11]; 0.04 µM,0.817
same,viability,[11]; 0.2 µM,0.742
same,viability,[11]; 1 µM,0.722
same,viability,[11]; 5 µM,0.713
same,viability,[12]; 0.008 µM,0.794
same,viability,[12]; 0.04 µM,0.768
same,viability,[12]; 0.2 µM,0.73
same,viability,[12]; 1 µM,0.701
same,viability,[12]; 5 µM,0.72
same,viability,[13]; 0.008 µM,0.892
same,viability,[13]; 0.04 µM,0.758
same,viability,[13]; 0.2 µM,0.693
same,viability,[13]; 1 µM,0.74
same,viability,[13]; 5 µM,0.704
same,viability,[14]; 0.008 µM,1.08
same,viability,[14]; 0.04 µM,1.14
same,viability,[14]; 0.2 µM,1.11
same,viability,[14]; 1 µM,1.12
same,viability,[14]; 5 µM,1.06
same,viability,[15]; 0.008 µM,0.804
same,viability,[15]; 0.04 µM,0.675
same,viability,[15]; 0.2 µM,0.559
same,viability,[15]; 1 µM,0.462
same,viability,[15]; 5 µM,0.447
same,viability,[16]; 0.008 µM,0.697
same,viability,[16]; 0.04 µM,0.328
same,viability,[16]; 0.2 µM,0.276
same,viability,[16]; 1 µM,0.246
same,viability,[16]; 5 µM,0.262
same,viability,[17]; 0.008 µM,1.16
same,viability,[17]; 0.04 µM,1.21
same,viability,[17]; 0.2 µM,1.14
same,viability,[17]; 1 µM,1.25
same,viability,[17]; 5 µM,1.06
